Ends that are not written are not given here.

Data set [1] concerns rd10 and rd10/Serpinf1−/− mice. The data set can be described thus: Retinal histology (H&E), OS length and ONL thickness spider plots after peptide eye drops. It counts as in vivo, mouse. As to conditions: daily eye drops 1 mg/ml; rd10 and rd10/Serpinf1−/− mice; P21. The protocol: Fig. 4: Effect of eyedrops of 17-mer and H105A peptides on photoreceptor morphology of rd10 and rd10/Serpinf1−/− mice (A and B) Histological Evaluation. Representative microphotographs of retina sections from rd10 (A) and rd10/Serpinf1−/− (B) mice treated with 17-mer, H105A, or R99A peptides at 1 mg/ml, or with vehicle (HBSS), compared to wild type C57Bl/6J mice. Sections were stained with hematoxylin and eosin. Spider Plot illustrate the thickness of the outer nuclear layer (ONL) in rd10 (C) and rd10/Serpinf1−/− (D) mice. Five retinas per group were analyzed and each data point represents the average ± SEM per location relative to the optic nerve (ON), analyzed using One-way ANOVA. Statistics for comparisons between H105A and vehicle is indicated by #p < 0.05, #p < 0.05, ##p < 0.01, ###p < 0.001). Statistics for comparisons between H105A and 17-mer is indicated by *p < 0.05. Scale bar = 50 μm.
Both eyes were oriented before enucleation to allow sectioning along the dorsal/ventral axis. Enucleated eyes from rd10 and rd10 × Serpinf1^−/− mice were incised in the cornea and fixed in 2.5% glutaraldehyde for 20 min and then in 10% neutral buffered formalin at 4°C for at least 48 h, followed by paraffin embedding, sectioning, and staining with either H&E or immunofluorescence procedures, as previously described ([28]). For fluorescence microscopy, antibodies, and 0.1 μg/ml DAPI were used to immunostain and nuclei counterstain the sections, respectively. Antibodies used in the study are in Table S3. Images were acquired using a ZEIS 700 confocal microscope. Fluorescence intensity was quantified using ImageJ as previously described ([14], [26]).
To generate spider plots, the ONL thickness was measured from images acquired with light microscopy of the retina sections stained with H&E or images of retina sections stained with DAPI with a dorsal-ventral orientation. The ONL thickness in the entire retina sections was measured at 5 different positions from both sides of the optic nerve (ON) using ImageJ, as described before ([28]). Alternatively, for DAPI stained images, a customed macro implemented in ImageJ was used to select only the ONL.
(§1) Figure S2. Effects of extending the timeline or administering eye drops of 17-mer[H105A] peptide every other day in rd10 mic e.
Eye drops of H105A peptide solution were administered to r d1 0 mice either daily (Fig. S2A) or every other day (Fi g. S 2D). A total of 5 µl of a solution containing H105A peptide at 1 mg/ml in HBSS were applied as eye drops. The vehicle HBSS was added as eye drops in the contralateral eyes. […]
ONL thickness in r d10 mice compared to vehicle was also observed (Fi g. S 2E), with an improvement in a- […]
efficacy of peptide H105A eye drops either daily or every other day in an extended timeline to stabilize photoreceptor morphology and light response function loss in r d10 mice, however, these were less efficacious than daily H105A peptide eye drops.
(A) Scheme showing a timeline of peptide administration via daily eye drops of H105A peptide to r d10 mice between P15 and P2 4. […]
(B) Representative microphotographs of retinal cross sections of r d1 0 treated as in Fig. S2A and stained with hematoxylin and eosin are shown. […]
(D) Scheme showing a timeline of peptide administration via eye drops of H105A peptide to rd10 mice starting at P15 every other day until P23. Assays were at P25.
(E) Representative microphotographs of retinal cross sections of r d1 0 treated as in Fig. S2D and stained […]
average ± SD per location relative to the ON per genotype by unpaired t-test. *p < 0.05, […]
(F) ERG of r d1 0 mice at P25 and treated as in Fig. S2D were performed in response to a STR. […]

Data set [2] has as its system rd10 and rd10/Serpinf1−/− mice. Kind of data set: In vivo photoreceptor cell death (PS externalization) by PSVue-550 fluorescence fundoscopy. Set-up: species or system mouse. On the procedure:
Fig. 2: Effect of PEDF peptide eye drops on protection against photoreceptor cell death in rd10 and rd10/Serpinf1^−/− mice (A) Illustration of the experimental timeline of peptide application. Eye drops containing 5 μl of 17-mer, H105A, or R99A peptides in HBSS were administered daily to eyes of rd10 and rd10/Serpinf1^−/− mice from P15 to P20. Vehicle (HBSS) was applied in contralateral eyes. At P20, PSVue® was applied via eye drops, and fluorescence fundoscopy was conducted at P21 to assess photoreceptor cell death. RE and LE refer to the right and left eyes, respectively. (B) Fluorescence fundoscopy micrographs. Representative fluorescence fundoscopy images of retinas from mice treated as in Panel A with eyedrops of 1 mg/ml of each peptide. Quantification of fluorescence intensity was performed using ImageJ, with average intensity values corrected for background fluorescence from eyes that had not received PSVue or peptides. […] Statistical significance was determined by unpaired t-test (****p < 0.0001). […] Representative fluorescence fundoscopy micrographs showing retinas treated with varying concentrations of 17-mer and H105A peptides (0.0 mg/ml to 1.0 mg/ml) in rd10 and rd10/SerpinfT^−/− mice. Fluorescence intensity was quantified and analyzed using Sigmoidal interpolation in GraphPad. […]

For data set [3], the system named is rd10 and rd10/Serpinf1−/− mice. Kind of data set: Electroretinography (ERG) a-wave and b-wave after peptide eye drops. It counts as in vivo, mouse. As to conditions: rd10 mice; daily eye drops of AlexaFl488-labelled peptide P15-P20, ERG at P21; n = 3 per condition.
From the text: Fig. 5: Effect of daily eyedrops of PEDF peptides on ERG a-wave and b-wave retinal function (A and B) Representative ERG waveforms for rd10 (A) and rd10/Serpinf1^−/− (B) mice at P21 in response to a light flash (1 cd.s/m^2). Amplitude (y-axis) is plotted against time in milliseconds (ms, x-axis). Treatments are indicated to the right of each plot and are color coded, with control wild type C57Bl/6J mice without peptide treatment shown in blue. A-wave and b-wave are indicated by arrows. (C and D) Photoreceptor a-wave amplitudes. Averages of photoreceptor a-wave amplitudes for rd10 (C) and rd10/Serpinf1^−/− (D) mice as a function of light intensity (cd/s.m^2, x-axis). Responses of animals treated with 17-mer are shown in green, H105A in black, and vehicle (HBSS) in red. Wildtype responses are shown in blue. (E and F) Bipolar cell b-wave amplitudes. Averages of bipolar cell b-wave amplitudes for rd10 (E) and rd10/Serpinf1^−/− (F) mice as a function of light intensity (cd/s.m^2, x-axis), with treatments indicated as in panels (C) and (D). The number of mice evaluated for the data shown in Panels C-F were n = 8 for each rd10, rd10/Serpinf1^−/− and wild type. Each data point represents the average ± SD of each genotype, analyzed by unpaired t-test. Statistical significance between H105A and vehicle is indicated by ##p < 0.01, ###p < 0.001, ####p < 0.0001, and between H105A and 17-mer by **p < 0.01, ***p < 0.001, ****p < 0.0001.
Electroretinogram (ERG) for rd10 and rd10/Serpinf1^−/− mice were recorded in both eyes of each animal using an Espion E2 system with ColorDome (Diagnosys LLC) with a heated surface and mice were dark-adapted overnight as previously described ([29]). Mice were placed on the heated surface and electrodes were placed in the mouth and a subdermal platinum needle electrode was placed in the back of the mouse to serve as ground. Responses were elicited with increasing light impulses with intensity from 0.0001 to 10 cd-seconds per meter squared (cd.s/m^2). Amplitudes for a-wave were measured from stimulus to the trough of the a-wave and b-wave amplitudes were measured from a-wave to b-wave trough or peak. The values from the a and b waves for both eyes were exported to Microsoft Excel to obtained amplitude values for each mouse.
as §1
Eye drops of H105A peptide solution were administered to r d1 0 mice either daily (Fig. S2A) or every other day (Fi g. S 2D). A total of 5 µl of a solution containing H105A peptide at 1 mg/ml in HBSS were applied as eye drops. The vehicle HBSS was added as eye drops in the contralateral eyes. When eye […]
intensity light at P25 (Fig. S2C). When eye drops of H105A were added every other day, a rescue in the ONL thickness in r d10 mice compared to vehicle was also observed (Fi g. S 2E), with an improvement in a- […]
efficacy of peptide H105A eye drops either daily or every other day in an extended timeline to stabilize photoreceptor morphology and light response function loss in r d10 mice, however, these were less efficacious than daily H105A peptide eye drops. […]
(C) ERG of r d1 0 mice at P25 and treated as in Fi g. […] For ERG data shown, the number of mice evaluated were n =5 for rd10 and each data point corresponds to the average ± SD of each genotype by unpaired t-test. *p < 0.05, **p < 0.01, * ** p < 0 .001 , ****p < 0.0001. […]

With QATESIIHRALYYDLIS [R99A], in data set [1], the “outer nuclear layer (ONL) thickness vs vehicle-treated or untreated eyes” value is “had no effect” and the “photoreceptor outer segment (OS) length vs vehicle-treated or untreated eyes” value is reported as “had no effect”. For the same substance, the “PS externalization (PSVue-550 fundi fluorescence) vs vehicle (HBSS) eye drops” value in data set [2] (daily eye drops 5 μl of 1 mg/ml, P15 to P20, fundoscopy at P21, 5 eyes per condition) is listed as “no significant efficacy”.

SLGAEQRTESIIHRALYYDLISSPDIHGT [29-mer]: the “photoreceptor cell death (PSVue 550 fluorescence fundoscopy) relative to vehicle” value in data set [2] (daily eye drops 5 μl of 1 mg/ml in HBSS from P15, P21, n = 3 retinas per genotype) is “no rescue in photoreceptor cell death”.

As for “AlexaFl-QRTESIIHRALYYDLIS-COOH [AlexaFl-488-17-mer, 17-mer conjugated to Alexa Fluor 488 dye]”, the “neuroprotective activity of labelled peptides as assessed by ERG” value in data set [3] is “exhibited neuroprotective activity”.

On to “AlexaFl-QRTESIIARALYYDLIS-COOH [AlexaFl-488-H105A, H105A peptide conjugated to Alexa Fluor 488 dye]”, for which the “neuroprotective activity of labelled peptides as assessed by ERG” value in data set [3] is on record as “exhibited neuroprotective activity”.
